The target in this test is T1, NaV 1.7 (Homo sapiens, UniProt Q15858).
T1 construct: expressed in transfected cells; host or cells: HEK cells
T1 sequence (Q15858 whole entry): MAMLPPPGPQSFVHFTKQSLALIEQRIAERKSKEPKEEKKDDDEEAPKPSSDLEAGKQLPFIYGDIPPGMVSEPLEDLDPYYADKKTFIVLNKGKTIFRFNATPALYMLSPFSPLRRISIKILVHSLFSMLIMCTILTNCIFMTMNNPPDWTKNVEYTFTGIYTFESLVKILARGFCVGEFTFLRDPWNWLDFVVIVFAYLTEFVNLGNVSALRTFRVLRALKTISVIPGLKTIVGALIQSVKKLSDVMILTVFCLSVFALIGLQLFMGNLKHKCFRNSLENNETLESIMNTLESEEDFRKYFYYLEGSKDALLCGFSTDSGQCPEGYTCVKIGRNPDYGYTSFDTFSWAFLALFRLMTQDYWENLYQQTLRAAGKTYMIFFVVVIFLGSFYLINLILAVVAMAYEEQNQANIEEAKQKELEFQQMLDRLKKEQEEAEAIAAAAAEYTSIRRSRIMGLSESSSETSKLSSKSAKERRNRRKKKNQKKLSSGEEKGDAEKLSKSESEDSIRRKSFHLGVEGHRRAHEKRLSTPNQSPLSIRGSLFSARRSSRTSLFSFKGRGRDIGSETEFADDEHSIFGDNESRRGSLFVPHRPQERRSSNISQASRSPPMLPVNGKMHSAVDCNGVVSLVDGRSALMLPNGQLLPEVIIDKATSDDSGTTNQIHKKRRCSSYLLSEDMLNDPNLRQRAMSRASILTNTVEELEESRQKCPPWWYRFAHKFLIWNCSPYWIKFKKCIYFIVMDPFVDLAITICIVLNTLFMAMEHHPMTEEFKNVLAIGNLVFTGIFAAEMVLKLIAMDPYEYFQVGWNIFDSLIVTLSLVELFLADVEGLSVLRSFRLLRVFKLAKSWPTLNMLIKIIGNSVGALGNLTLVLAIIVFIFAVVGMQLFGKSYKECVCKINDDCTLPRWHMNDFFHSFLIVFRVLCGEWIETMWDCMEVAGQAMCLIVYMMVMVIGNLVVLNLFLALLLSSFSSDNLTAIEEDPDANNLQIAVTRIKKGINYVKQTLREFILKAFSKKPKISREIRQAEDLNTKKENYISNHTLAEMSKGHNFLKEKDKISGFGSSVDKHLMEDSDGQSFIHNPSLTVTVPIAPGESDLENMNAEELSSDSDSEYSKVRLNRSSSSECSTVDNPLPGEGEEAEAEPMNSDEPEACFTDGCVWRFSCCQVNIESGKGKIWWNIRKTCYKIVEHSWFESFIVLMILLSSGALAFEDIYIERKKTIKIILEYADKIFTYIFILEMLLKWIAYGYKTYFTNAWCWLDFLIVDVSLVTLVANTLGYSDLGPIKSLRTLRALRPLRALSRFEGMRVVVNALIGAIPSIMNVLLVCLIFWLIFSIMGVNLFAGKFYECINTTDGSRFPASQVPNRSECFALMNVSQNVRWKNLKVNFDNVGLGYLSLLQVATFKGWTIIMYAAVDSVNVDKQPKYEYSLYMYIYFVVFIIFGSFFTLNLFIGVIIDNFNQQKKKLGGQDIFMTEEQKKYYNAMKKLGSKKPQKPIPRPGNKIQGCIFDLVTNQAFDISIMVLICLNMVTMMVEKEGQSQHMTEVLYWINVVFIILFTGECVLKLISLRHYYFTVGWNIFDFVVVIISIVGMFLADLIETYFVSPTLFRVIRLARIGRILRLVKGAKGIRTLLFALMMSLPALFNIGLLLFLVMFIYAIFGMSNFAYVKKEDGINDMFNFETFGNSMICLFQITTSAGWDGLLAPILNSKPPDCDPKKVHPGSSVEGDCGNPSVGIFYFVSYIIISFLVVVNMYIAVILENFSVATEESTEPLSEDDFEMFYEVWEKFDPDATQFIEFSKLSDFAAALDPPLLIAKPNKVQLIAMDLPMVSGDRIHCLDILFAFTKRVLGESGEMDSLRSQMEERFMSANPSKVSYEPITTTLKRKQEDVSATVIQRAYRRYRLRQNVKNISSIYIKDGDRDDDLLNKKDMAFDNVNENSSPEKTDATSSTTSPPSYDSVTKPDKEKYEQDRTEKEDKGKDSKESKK
Briefly: E-VIPR optical membrane potential assay with electrical stimulation. In kind it is cell-based. Conditions: active against one or more sodium channels; assay/subtype not specified in Table 4; read-out: IC50 Binned Activity Data. The text has this:
E-VIPR Optical Membrane Potential Assay Method with Electrical Stimulation
Sodium channels are voltage-dependent proteins that can be activated by inducing membrane voltage changes by applying electric fields. The electrical stimulation instrument and methods of use are described in Ion Channel Assay Methods PCT/US01/21652, herein incorporated by reference and are referred to as E-VIPR. The instrument comprises a microtiter plate handler, an optical system for exciting the coumarin dye while simultaneously recording the coumarin and oxonol emissions, a waveform generator, a current- or voltage-controlled amplifier, and a device for inserting electrodes in well. Under integrated computer control, this instrument passes user-programmed electrical stimulus protocols to cells within the wells of the microtiter plate.
24 hours before the assay on E-VIPR, HEK cells expressing human NaV subtype, like NaV 1.7, are seeded in 384-well poly-lysine coated plates at 15,000-20,000 cells per well. Other subtypes are performed in an analogous mode in a cell line expressing the NaV of interest. HEK cells are grown in media (exact composition is specific to each cell type and NaV subtype) supplemented with 10% FBS (Fetal Bovine Serum, qualified; GibcoBRL #16140-071) and 1% Pen-Strep (Penicillin-Streptomycin; GibcoBRL #15140-122). Cells are grown in vented cap flasks, in 90% humidity and 10% CO2, to 100% confluence. They are usually split by trypsinization 1:10 or 1:20, depending on scheduling needs, and grown for 2-3 days before the next split.
• 100 mg/mL Pluronic F-127 (Sigma #P2443), in dry DMSO • Compound Plates: 384-well round bottom plate, e.g. Corning 384-well Polypropylene Round Bottom #3656 • Cell Plates: 384-well tissue culture treated plate, e.g. Greiner #781091-1B • 10 mM DiSBAC6(3) (Aurora #00-100-010) in dry DMSO • 10 mM CC2-DMPE (Aurora #00-100-008) in dry DMSO • 200 mM ABSC1 in H2O
Bath1 buffer. Glucose 10 mM (1.8 g/L), Magnesium Chloride (Anhydrous), 1 mM (0.095 g/L), Calcium Chloride, 2 mM (0.222 g/L), HEPES 10 mM (2.38 g/L), Potassium Chloride, 4.5 mM (0.335 g/L), Sodium Chloride 160 mM (9.35 g/L).
Hexyl Dye Solution: Bath1 Buffer+0.5% β-cyclodextrin (make this prior to use, Sigma #C4767), 8 μM CC2-DMPE+2.5 μM DiSBAC6(3). To make the solution Add volume of 10% Pluronic F127 stock equal to volumes of CC2-DMPE+DiSBAC6(3). The order of preparation is first mix Pluronic and CC2-DMPE, then add DiSBAC6(3) while vortexing, then add Bath1+β-Cyclodextrin.
1) Pre-spot compounds (in neat DMSO) into compound plates. Vehicle control (neat DMSO), the positive control (20 mM DMSO stock tetracaine, 125 μM final in assay) and test compounds are added to each well at 160× desired final concentration in neat DMSO. Final compound plate volume will be 80 μL (80-fold intermediate dilution from 1 μL DMSO spot; 160-fold final dilution after transfer to cell plate). Final DMSO concentration for all wells in assay is 0.625%.
2) Prepare Hexyl Dye Solution.
3) Prepare cell plates. On the day of the assay, medium is aspirated and cells are washed three times with 100 μL of Bath1 Solution, maintaining 25 μL residual volume in each well.
4) Dispense 25 μL per well of Hexyl Dye Solution into cell plates. Incubate for 20-35 minutes at room temp or ambient conditions.
5) Dispense 80 μL per well of Bath1 into compound plates. Acid Yellow-17 (1 mM) is added and Potassium Chloride can be altered from 4.5 to 20 mM depending on the NaV subtype and assay sensitivity.
6) Wash cell plates three times with 100 μL per well of Bath1, leaving 25 μL of residual volume. Then transfer 25 uL per well from Compound Plates to Cell Plates. Incubate for 20-35 minutes at room temp/ambient condition
7) Read Plate on E-VIPR. Use the current-controlled amplifier to deliver stimulation wave pulses for typically 9 seconds and a scan rate of 400 Hz. A pre-stimulus recording is performed for 0.5 seconds to obtain the un-stimulated intensities baseline. […]
Consider `COc1cc(C(=O)N2CC[C@]3(c4ccccc4)OCOC3C2)ccc1OCCC(F)(F)F` (stereo partly shown) [Compound 102], for which the IC50 was at most 2 µM. As for `CCOc1nc(C(=O)N2CC[C@]3(c4csc(C)n4)OCOC3C2)ccc1OCCOC(F)(F)F` (stereo partly shown) [Compound 103], the IC50 is at most 2 µM. With `COc1cc(C(=O)N2CC[C@]3(c4ccccc4)CC3C2)ccc1OCC(C)(C)O` (stereo partly shown) [Compound 104] the figure was at most 2 µM; with `COc1cc(C(=O)N2CC[C@]3(c4ccccn4)OCOC3C2)cc(Cl)c1OCCOC(F)(F)F` (stereo partly shown) [Compound 105], at most 2 µM; with `CC(F)(F)COc1ccc(C(=O)N2CC[C@]3(c4ccccn4)OCOC3C2)cc1Cl` (stereo partly shown) [Compound 106], at most 2 µM. On to `COc1nc(C(=O)N2CC[C@]3(c4ccccn4)OCOC3C2)ccc1OCCOC(F)(F)F` (stereo partly shown) [Compound 107], for which the IC50 was at most 2 µM. In the case of `O=C(c1ccc(OCCOCC(F)(F)F)c(Cl)c1)N1CC[C@]2(c3ccccn3)OCOC2C1` (stereo partly shown) [Compound 108], the IC50 is at most 2 µM. With `Cc1cc(C(=O)N2CC[C@@]3(c4ccc(F)cc4)OCOC3C2)ccc1OCC(C)(C)F` (stereo partly shown) [Compound 109], the IC50 was at most 2 µM. The figure for `CC(C)(F)COc1ccc(C(=O)N2CC[C@]3(c4ccccn4)OCOC3C2)cc1Cl` (stereo partly shown) [Compound 110] is at most 2 µM. The figure for `COc1nc(C(=O)N2CC[C@]3(c4nccs4)OCOC3C2)ccc1OCCOC(F)(F)F` (stereo partly shown) [Compound 111] is at most 2 µM; for `COc1ccnc(C23CCN(C(=O)c4ccc(OCCOC(F)(F)F)c(OC)c4)CC2OCO3)c1` (stereo not shown) [Compound 112] it is at most 2 µM.

In the case of `Cc1cc(C(=O)N2CCC3(c4ccccc4)CC3C2)ccc1C(C)(C)O` (stereo not shown) [Compound 113], the IC50 was at most 2 µM. As to `Cc1cc(C(=O)N2CC[C@@]3(c4ccccc4)C[C@@H]3C2)ccc1OCC(C)(C)O` [Compound 114], the IC50 is at most 2 µM.

For the molecule `COc1cc(C(=O)N2CCC3(c4ccccc4)CC3C2)ccc1C(C)(C)CO` (stereo not shown) [Compound 115], the IC50 is at most 2 µM. With `O=C(c1ccc(OCCOC(F)(F)F)c(Cl)c1)N1CC[C@@]2(c3ccccn3)COC2C1` (stereo partly shown) [Compound 116], the IC50 was at most 2 µM. With `COc1cc(C(=O)N2CC[C@]3(c4ccccc4)OCOC3C2)ccc1OC(C)C(F)(F)F` (stereo partly shown) [Compound 117] the figure was at most 2 µM; with `CCOc1nc(C(=O)N2CC[C@]3(c4nccs4)OCOC3C2)ccc1OCCOC(F)(F)F` (stereo partly shown) [Compound 118], at most 2 µM. The figure for `O=C(c1cc2n(n1)C(C(F)(F)F)CC(C1CC1)N2)N1CCC2(c3ccccc3)CC2C1` (stereo not shown) [Compound 119] is at most 2 µM; for `Cc1cc(C(=O)N2CC[C@@]3(c4ccccc4)OCOC3C2)ccc1OCC(C)(C)F` (stereo partly shown) [Compound 120] it is at most 2 µM; for `CC(C)(C)COc1ccc(C(=O)N2CC[C@]3(c4ccccn4)OCOC3C2)cc1Cl` (stereo partly shown) [Compound 121] it is at most 2 µM. In the case of `COc1cc(C(=O)N2CC[C@@]3(c4ccc(F)cc4)OCOC3C2)ccc1OCCOC(F)(F)F` (stereo partly shown) [Compound 122], the IC50 is at most 2 µM. The figure for `O=C(c1ccc(OCC(F)(F)C(F)F)c(C(F)(F)F)c1)N1CC[C@]2(c3ccccn3)OCOC2C1` (stereo partly shown) [Compound 123] is at most 2 µM; for `Cc1cc(C(=O)N2CC[C@]3(c4ccc(F)cc4)OCOC3C2)ccc1OCC(C)(C)F` (stereo partly shown) [Compound 124] it is at most 2 µM; for `COc1nc(C(=O)N2CCC3(c4ccccc4)CC3C2)ccc1OCC(C)(C)F` (stereo not shown) [Compound 125] it is at most 2 µM. With `COc1nc(C(=O)N2CC[C@@]3(c4nccs4)OCOC3C2)ccc1OCCOC(F)(F)F` (stereo partly shown) [Compound 126] the figure was at most 2 µM. With `CC(C)(F)COc1ccc(C(=O)N2CC[C@]3(c4ccccn4)OCO[C@@H]3C2)cc1C(F)(F)F` [Compound 127] the figure was at most 2 µM; with `O=C(c1ccc(OCCC(F)(F)F)c(C(F)(F)F)c1)N1CC[C@]2(c3ccccn3)OCOC2C1` (stereo partly shown) [Compound 128], at most 2 µM. Take `Cc1cc(C(=O)N2CC[C@]3(c4ncccc4F)OCOC3C2)ccc1OCCOC(F)(F)F` (stereo partly shown) [Compound 129]: the IC50 is at most 2 µM.

As for `COc1nc(C(=O)N2CC[C@]3(c4ccccn4)OCOC3C2)ccc1OCC1(C(F)(F)F)CC1` (stereo partly shown) [Compound 130], the IC50 is at most 2 µM. For `COc1cc(C(=O)N2CC[C@]3(c4cccc(Cl)c4)OCOC3C2)ccc1OCCC(F)(F)F` (stereo partly shown) [Compound 131], the IC50 was at most 2 µM. With `COc1cc(C(=O)N2CC[C@]3(c4ccccc4)OCCOC3C2)ccc1OCCOC(F)(F)F` (stereo partly shown) [Compound 132] the figure was at most 2 µM; with `Cc1cc(C(=O)N2CC[C@]3(c4ccccc4)C[C@@H]3C2)ccc1OCC(C)(C)O` [Compound 133], at most 2 µM.

As to `Cc1nc(C(=O)N2CCC3(c4ccccc4)CC3C2)ccc1OC(C)C` (stereo not shown) [Compound 134], the IC50 is at most 2 µM. With `O=C(c1ccc(OCC2CC2(F)F)c(Cl)c1)N1CC[C@]2(c3ccccn3)OCOC2C1` (stereo partly shown) [Compound 135] the figure was at most 2 µM; with `COc1cc(C(=O)N2CCC3(c4ccccc4)CC3C2)ccc1COCCC(F)(F)F` (stereo not shown) [Compound 136], at most 2 µM; with `CCOc1nc(C(=O)N2CC[C@@]3(c4nccs4)OCOC3C2)ccc1OCCOC(F)(F)F` (stereo partly shown) [Compound 137], at most 2 µM. With `O=C(c1ccc(OCCOC(F)(F)F)c(Cl)c1)N1CC[C@@]2(c3nccs3)OCOC2C1` (stereo partly shown) [Compound 138], the IC50 is at most 2 µM. With `COc1cc(C(=O)N2CC[C@]3(c4ccccc4)OCOC3C2)ccc1OCC1CC(F)(F)C1` (stereo partly shown) [Compound 139] the figure was at most 2 µM; with `O=C(c1ccc(OCCOC(F)(F)F)c(Cl)c1)N1CC[C@]2(c3nccs3)OCOC2C1` (stereo partly shown) [Compound 140], at most 2 µM.

Consider `COc1cc(C(=O)N2CC[C@]3(c4cccc(Br)n4)OCOC3C2)ccc1OCCOC(F)(F)F` (stereo partly shown) [Compound 141], for which the concentration for half-maximal inhibition (IC50) is at most 2 µM. Take `Cc1cc(C(=O)N2CC[C@]3(c4cscn4)OCOC3C2)ccc1OCCOC(F)(F)F` (stereo partly shown) [Compound 142]: the IC50 was at most 2 µM.

On to `O=C(c1cccc2cccnc12)N1CCC2(c3ccccc3)CC2C1` (stereo not shown) [Compound 143], for which the IC50 was at most 2 µM. As to `Cc1nc([C@]23CCN(C(=O)c4ccc(OCCOC(F)(F)F)c(C)c4)CC2OCO3)cs1` (stereo partly shown) [Compound 144], the IC50 was at most 2 µM. The figure for `O=C(c1ccc(OCCOC(F)(F)F)c(Cl)c1)N1CC[C@]2(c3ncccc3F)OCOC2C1` (stereo partly shown) [Compound 145] is at most 2 µM. The figure for `O=C(c1ccc(OCC2CC(F)(F)C2)c(Cl)c1)N1CC[C@]2(c3ccccn3)OCOC2C1` (stereo partly shown) [Compound 146] is at most 2 µM; for `COc1cc(C(=O)N2CCC3(c4ccccc4)CC3C2)ccc1C(C)(C)O` (stereo not shown) [Compound 147] it is at most 2 µM. With `COc1cc(C(=O)N2CC[C@@]3(c4ccccc4)OCOC3C2)ccc1OCCOC(F)(F)F` (stereo partly shown) [Compound 148] the figure was at most 2 µM; with `Cc1nc([C@]23CCN(C(=O)c4ccc(OCCOC(F)(F)F)c(Cl)c4)CC2OCO3)cs1` (stereo partly shown) [Compound 149], at most 2 µM; with `COc1cc(C(=O)N2CC[C@]3(c4ccccc4)OCOC3C2)ccc1OCCOC(F)(F)F` (stereo partly shown) [Compound 150], at most 2 µM.

As usually defined, the IC50 is the concentration that gives 50% inhibition.

(Values after patent US10233191B2, “Fused piperidine amides as modulators of ion channels” (Vertex Pharmaceuticals Incorporated, priority 2013, dated 2019).)
